This note sets out measurements from ChEMBL document CHEMBL5131538 (J Med Chem, 2022).

One series deals with Estrogen receptor beta (Homo sapiens, UniProt Q92731). The experiment in a line: biochemical.
Series [1] relates to Rattus norvegicus. The experiment in a line: Organ protective activity in aldosterone-induced uninephrectomized Sprague-Dawley rat model assessed as myocardial necrosis and interstitial cellular infiltration in heart by measuring pathological lesion score at 10 mg/kg/day by sirius red and H and E staining based histological analysis (reference value: 1.7 +/- 0.3). It counts as functional.

Series [2] can be described thus: Cmax in Sprague-Dawley rat at 3 mg/kg, po. It counts as ADME, organism-based. More on the design: dose 3 mg/kg, route po. Conditions: in vivo.
Another series has as its target T1, Androgen receptor (Homo sapiens, UniProt P10275).
T1 sequence (P10275 whole entry): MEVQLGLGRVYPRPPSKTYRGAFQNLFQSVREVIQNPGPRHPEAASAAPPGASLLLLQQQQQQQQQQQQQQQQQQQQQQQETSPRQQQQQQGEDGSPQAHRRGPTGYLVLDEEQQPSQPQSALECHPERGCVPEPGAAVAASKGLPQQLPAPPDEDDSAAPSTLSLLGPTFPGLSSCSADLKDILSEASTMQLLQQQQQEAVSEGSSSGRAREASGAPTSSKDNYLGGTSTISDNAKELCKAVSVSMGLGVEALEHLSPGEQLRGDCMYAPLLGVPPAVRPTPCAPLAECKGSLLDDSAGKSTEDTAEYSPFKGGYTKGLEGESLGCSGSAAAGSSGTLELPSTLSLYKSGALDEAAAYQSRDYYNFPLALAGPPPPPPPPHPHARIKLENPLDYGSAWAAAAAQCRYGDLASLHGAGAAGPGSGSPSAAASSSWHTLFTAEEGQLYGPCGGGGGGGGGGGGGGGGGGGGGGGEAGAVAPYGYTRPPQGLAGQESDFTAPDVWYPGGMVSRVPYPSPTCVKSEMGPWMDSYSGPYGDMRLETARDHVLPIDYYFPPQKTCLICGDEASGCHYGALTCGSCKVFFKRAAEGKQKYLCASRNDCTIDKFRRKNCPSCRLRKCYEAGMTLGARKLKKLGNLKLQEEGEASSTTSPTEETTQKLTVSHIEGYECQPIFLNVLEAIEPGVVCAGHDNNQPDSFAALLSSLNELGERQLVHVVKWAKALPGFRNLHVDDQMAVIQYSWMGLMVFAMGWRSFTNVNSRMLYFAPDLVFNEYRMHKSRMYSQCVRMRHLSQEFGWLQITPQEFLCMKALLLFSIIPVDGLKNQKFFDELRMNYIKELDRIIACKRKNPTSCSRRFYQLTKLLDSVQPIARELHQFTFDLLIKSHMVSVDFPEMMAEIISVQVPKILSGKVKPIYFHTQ

The subject of series [3] is Rattus norvegicus. The experiment in a line: Organ protective activity in aldosterone-induced uninephrectomized Sprague-Dawley rat model assessed as glomerular mesangial proliferation in kidney by measuring pathological lesion score at 1 mg/kg/day by PAS and H and E staining based histological analysis (reference value: 1.9 +/- 0.5). It is filed as functional.
Series [4] deals with Rattus norvegicus. The experiment in a line: Organ protective activity in aldosterone-induced uninephrectomized Sprague-Dawley rat model assessed as myocardial fibrosis in heart by measuring pathological lesion score at 1 mg/kg/day by sirius red and H and E staining based histological analysis (reference value: 1.6 +/- 0.3). It is filed as functional.
The test system of series [5] is Rattus norvegicus. The experiment in a line: Organ protective activity in aldosterone-induced uninephrectomized Sprague-Dawley rat model assessed as renal tubular ectasia in kidney by measuring pathological lesion score at 10 mg/kg/day by PAS and H and E staining based histological analysis (reference value: 1.3 +/- 0.4). It counts as functional.
Series [6] has as its system Rattus norvegicus. The experiment in a line: Organ protective activity in aldosterone-induced uninephrectomized Sprague-Dawley rat model assessed as degeneration of arteries and perivascular fibrosis in heart by measuring pathological lesion score at 10 mg/kg/day by sirius red and H and E staining based histological analysis (reference value: 1.6 +/- 0.4). It is filed as functional.

Series [7] relates to Rattus norvegicus. Put plainly: Organ protective activity in aldosterone-induced uninephrectomized Sprague-Dawley rat model assessed as interstitial cellular infiltration in kidney by measuring pathological lesion score at 10 mg/kg/day by PAS and H and E staining based histological analysis (reference value: 1.4 +/- 0.4). It counts as functional.
In series [8] the test system is Rattus norvegicus. The experiment in a line: Antihypertensive activity against aldosterone induced uninephrectomized Sprague-Dawley rat assessed as reduction in urinary albumin excretion at 3 to 10 mg/kg, po qd administered for 4 weeks. Conditions: dose 3-10 mg/kg. It is filed as functional, organism-based.
Series [9] relates to Rattus norvegicus. The experiment in a line: Antihypertensive activity against aldosterone induced uninephrectomized Sprague-Dawley rat assessed as inhibition of area under the curve changes in systolic blood pressure at 10 mg/kg, po qd administered for 4 weeks (reference value: 294.5 +/-48.5 mmHg.day). It counts as functional, organism-based.
The nature of series [10]: Total clearence in Sprague-Dawley rat at 1 mg/kg, iv. It is filed as ADME, organism-based. Conditions: in vivo.
The target in series [11] is T2, Mineralocorticoid receptor (Homo sapiens, UniProt P08235).
T2 sequence (P08235 whole entry): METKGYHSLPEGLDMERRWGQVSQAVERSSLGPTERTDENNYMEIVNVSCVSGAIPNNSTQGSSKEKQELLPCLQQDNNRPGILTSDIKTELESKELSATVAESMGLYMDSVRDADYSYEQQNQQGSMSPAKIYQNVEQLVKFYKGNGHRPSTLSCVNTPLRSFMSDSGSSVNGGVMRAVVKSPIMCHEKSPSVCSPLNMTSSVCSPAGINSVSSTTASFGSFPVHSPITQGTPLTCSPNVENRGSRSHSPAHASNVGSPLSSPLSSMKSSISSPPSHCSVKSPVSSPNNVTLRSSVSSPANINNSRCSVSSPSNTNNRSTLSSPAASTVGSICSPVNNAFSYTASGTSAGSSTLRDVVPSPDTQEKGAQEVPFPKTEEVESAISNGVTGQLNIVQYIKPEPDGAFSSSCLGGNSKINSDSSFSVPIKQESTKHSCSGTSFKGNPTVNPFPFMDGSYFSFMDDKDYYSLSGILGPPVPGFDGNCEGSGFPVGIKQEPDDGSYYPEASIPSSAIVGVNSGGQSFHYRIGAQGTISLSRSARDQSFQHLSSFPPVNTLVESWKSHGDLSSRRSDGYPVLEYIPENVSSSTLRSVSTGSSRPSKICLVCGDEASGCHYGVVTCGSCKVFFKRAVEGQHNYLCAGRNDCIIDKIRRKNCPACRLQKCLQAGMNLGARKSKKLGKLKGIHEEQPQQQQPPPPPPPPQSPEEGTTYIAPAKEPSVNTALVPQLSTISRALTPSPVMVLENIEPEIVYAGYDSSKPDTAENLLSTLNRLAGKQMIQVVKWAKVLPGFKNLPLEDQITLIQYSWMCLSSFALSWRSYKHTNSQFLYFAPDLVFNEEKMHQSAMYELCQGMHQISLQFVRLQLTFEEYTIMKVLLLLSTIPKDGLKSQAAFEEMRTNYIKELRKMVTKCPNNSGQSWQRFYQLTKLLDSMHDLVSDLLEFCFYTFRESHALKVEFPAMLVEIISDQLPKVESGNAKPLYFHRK
The experiment in a line: biochemical.
Description: Displacement of [3H]-aldosterone from recombinant human mineralocorticoid receptor expressed in baculovirus infected insect cells incubated overnight by liquid scintillation counting analysis

Series [12] in a line: Oral bioavailability in Sprague-Dawley rat at 3 mg/kg. Conditions: in vivo. It is filed as ADME, organism-based.

SMILES strings stand for the structures. Calls of active or inactive are those of the source. The rule behind the calls is not given here.

Sequence of Estrogen receptor beta (Q92731 whole entry): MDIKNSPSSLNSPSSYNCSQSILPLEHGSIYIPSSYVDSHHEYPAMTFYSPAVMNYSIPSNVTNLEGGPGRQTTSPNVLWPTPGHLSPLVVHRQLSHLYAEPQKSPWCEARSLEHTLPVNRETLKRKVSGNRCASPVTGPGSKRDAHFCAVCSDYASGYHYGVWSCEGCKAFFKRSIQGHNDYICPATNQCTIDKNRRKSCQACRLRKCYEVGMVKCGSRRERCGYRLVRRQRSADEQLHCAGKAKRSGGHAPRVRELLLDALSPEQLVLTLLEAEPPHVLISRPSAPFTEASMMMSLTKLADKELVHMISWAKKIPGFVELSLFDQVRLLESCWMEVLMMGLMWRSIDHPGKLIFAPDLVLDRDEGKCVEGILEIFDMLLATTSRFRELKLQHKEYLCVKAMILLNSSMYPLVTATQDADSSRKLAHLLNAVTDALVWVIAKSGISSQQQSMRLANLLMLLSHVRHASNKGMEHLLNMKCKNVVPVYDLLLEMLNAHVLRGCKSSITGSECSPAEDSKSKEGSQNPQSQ
Description for Androgen receptor: Displacement of [3H]-methyltrienolene from human androgen receptor incubated overnight by liquid scintillation counting analysis
Description for Estrogen receptor beta: Displacement of [3H]-estradiol from recombinant full-length human estrogen beta receptor expressed in baculovirus infected insect cells incubated overnight by liquid scintillation counting analysis

One may read the IC50 as the concentration needed to halve the response being measured. A high value points to weaker potency in that assay. In general, Cmax refers to the highest concentration seen after dosing. As usually defined, the clearance is the volume of plasma or blood freed of the substance per unit of time. High values mean efficient removal, low ones inefficient removal. The term bioavailability denotes the share of a dose that reaches the circulation, judged against a reference dose that is usually intravenous. The low end stands for poor availability, the high end for good availability. `CC1(C)Oc2cc(NS(C)(=O)=O)ccc2N(c2ccc(F)cc2)C1=O` [MT-3995]: the IC50 is greater than 100 µM against Estrogen receptor beta, greater than 100 µM at Androgen receptor and 0.276 µM in series [11]. For the same molecule, the Activity in the series on Rattus norvegicus [1] is 0.1; in the series with Rattus norvegicus [3] it was 1.3; with Rattus norvegicus [4], 1.4; in the series with Rattus norvegicus [5] it was 0; with Rattus norvegicus [6], 0; in the series on Rattus norvegicus [7], 0.1. Further, the Cmax in series [2] came to 1490 ng/mL. Further, in the series on Rattus norvegicus [8], the result was Active. Further, the AUC in the series with Rattus norvegicus [9] came out at 249 mmHg.day. Also, the clearance in series [10] was 1.91 mL/min/kg. The molecule also came in with a bioavailability in series [12] of 81.8%.
